Reference: PMC7343278, “A Meroisoprenoid, Heptenolides, and C-Benzylated Flavonoids from Sphaerocoryne gracilis ssp. gracilis” (Journal of Natural Products, 2020)
Where two headings read alike, the source gives them in different places. Blank lines part the entries; values can stand above or below the molecule they belong to.

Tests used:
[1] = test system: HEK-293 human embryonic kidney cells; test: Cytotoxicity against human embryonic kidney cells; format: cell-based; settings: for inhibition at 20 µM: read-out: Percentage growth inhibition at 20 μM, HEK-293
Protocol: (§1) Antiplasmodial activity was determined using a high-content imaging assay, as described previously.[10],[24] The cytotoxicity of the antiplasmodial compounds was evaluated against human embryonic kidney cells (HEK-293) following an established protocol.[10],[24] Human red blood cells for culture of P. falciparum were provided by the Australian Red Cross Blood Bank in accordance with their routine Material Transfer Agreement (MTA) for nonclinical blood product supply. These bioassay studies were approved by the Griffith University Biosafety and Human Ethics Committee (GU ref no. ESK/03/12/HREC; 03/08/11019).

[2] = test system: Plasmodium falciparum chloroquine-sensitive (3D7) strain; test: Antiplasmodial high-content imaging assay, 3D7 strain; format: cell-based; settings: for IC50: Plasmodium falciparum; for inhibition of plasmodial growth at 20 μM: 20 μM concentration, strain not specified (3D7/Dd2)
[3] = test system: Plasmodium falciparum chloroquine-resistant (Dd2) strain; test: Antiplasmodial high-content imaging assay, Dd2 strain; format: cell-based
Protocol: as §1

[4] = test system: cap-dependent and independent translation initiation; test: Translation inhibition assay (luciferase model); format: biochemical; settings: in vitro
Protocol: Luciferase inhibition activity assays were performed following standard procedures described previously.[9],[10]

[5] = P. falciparum 3D7 (chloroquine-sensitive), read-out: IC50 3D7
[6] = P. falciparum Dd2 (chloroquine-resistant), read-out: IC50 Dd2

Compound: C[C@H]1[C@@H](O)O[C@@H]2O[C@@]3(C)CC[C@H]4[C@H](C)CC[C@@H]1[C@@]24OO3 [DHA]
- inhibition at 20 µM ([1]; HEK293, HEK-293 cells): 50%

Compound: C[C@H]1[C@H](OC(=O)CCC(=O)O)O[C@@H]2O[C@@]3(C)CC[C@H]4[C@H](C)CC[C@@H]1[C@@]24OO3 [artesunate]
- inhibition at 20 µM ([1]; HEK293, HEK-293 cells): 75%

Compound: CCN(CC)CCCC(C)Nc1ccnc2cc(Cl)ccc12 (stereo not drawn) [chloroquine]
- IC50 ([2]; 3D7, read-out: IC50 3D7): 0.0045 µM
- IC50 ([3]; DD2, read-out: IC50 Dd2): 0.046 µM
- inhibition at 40 µM ([1]; HEK293, read-out: Percentage growth inhibition at 40 μM, HEK-293): 60%

Compound: O=C1C[C@@H](c2ccccc2)Oc2cc(O)c(Cc3cccc(O)c3O)c(O)c21 [compound 4, (S)-6-(2,3-dihydroxybenzyl)-5,7-dihydroxy-2-phenylchroman-4-one]
- inhibition of plasmodial growth at 20 μM [2]: inhibited plasmodial growth moderately
- translational inhibitory activity [4]: none showed significant translational inhibitory activity

Compound: O=c1cc(-c2ccccc2)oc2c(Cc3cccc(O)c3O)c(O)cc(O)c12 [compound 5, 8-(2,3-dihydroxybenzyl)-5,7-dihydroxy-2-phenyl-4H-chromen-4-one]
- inhibition of plasmodial growth at 20 μM [2]: inhibited plasmodial growth moderately
- translational inhibitory activity [4]: none showed significant translational inhibitory activity

Compound: O=C1C[C@@H](c2ccccc2)Oc2c(Cc3cccc(O)c3O)c(O)c(Cc3cccc(O)c3O)c(O)c21 [compound 6, 3″-hydroxygracinol]
- translational inhibitory activity [4]: none showed significant translational inhibitory activity

Compound: O=C1C=C/C(=C/[C@H](O)COC(=O)c2ccccc2)O1 [compound 9, (Z)-melodorinol]
- translational inhibitory activity [4]: none showed significant translational inhibitory activity

Compound: COC(=O)/C=C/C(=O)C[C@H](O)COC(=O)c1ccccc1 [compound 10, 7-hydroxy-6-hydromelodienone]
- inhibition at 40 µM ([1]; HEK293, HEK-293 cells, 40 μM, read-out: Percentage growth inhibition at 40 μM, HEK-293): 100%
- translational inhibitory activity [4]: none showed significant translational inhibitory activity

Compound: O=c1cc(-c2ccccc2)oc2cc(O)cc(O)c12 [compound 12, 5,7-dihydroxyflavone]
- translational inhibitory activity [4]: none showed significant translational inhibitory activity

- IC50 [2, 5]: 0.023 µM
- IC50 [3, 6]: 0.045 µM
Compound: COc1ccc(C[C@H](N)C(=O)N[C@H]2[C@@H](O)[C@H](n3cnc4c(N(C)C)ncnc43)O[C@@H]2CO)cc1 [puromycin]
- IC50 ([1]; HEK293, HEK-293 cells): 0.36 µM

Compound: CCc1nc(N)nc(N)c1-c1ccc(Cl)cc1 [pyrimethamine]
- IC50 ([1]; HEK293, HEK-293 cells): 4.2 µM

- IC50 [2, 5]: 0.0036 µM
- IC50 [3, 6]: 0.0075 µM
Compound: COc1ccc2nc3cc(Cl)ccc3c(Nc3cc(CN4CCCC4)c(O)c(CN4CCCC4)c3)c2n1 [pyronaridine]
- IC50 ([1]; HEK293, HEK-293 cells): 1.8 µM
